# Assay results published in patent publication US20230226005A1, “Methods of Treating, Ameliorating, Shortening Duration, and/or Reversing Symptoms and/or Complications of a Coronavirus Infection” (Yale University, priority 2020, published 2023).
# Tested on: COVID-19 infection
# Experiment: Phase IIa study: COVID-19 PRO daily self-score, symptom severity score (items 1-33, 0-132)
# Type: in vivo
smiles,measurement,setting,value
"CN(C)C(=O)COC(=O)Cc1ccc(OC(=O)c2ccc(NC(=N)N)cc2)cc1 [camostat, 4-[[4-[(Aminoiminomethyl)amino]benzoyl]oxy]benzeneacetic acid 2-(dimethylamino)-2-oxoethyl ester]","symptom score, Fitzmaurice mixed effects model, B − A (placebo − camostat)",day 5,5.84 (2.79)
same,"symptom severity score, ANCOVA linear mixed model, A: Camostat arm",day 5,−14.41 (2.13)
same,"symptom severity score, ANCOVA linear mixed model, B − A (placebo − camostat)",day 5,4.84 (3.01)
same,"symptom severity score, Negative binomial model, A: Camostat arm",day 5,17.14 (2.63)
same,"symptom severity score, Negative binomial model, B − A",day 5,1.27 (0.24)
same,COVID-19 symptom severity score raw Mean,day 6,14.1
same,"symptom score, Fitzmaurice mixed effects model, A: Camostat arm",day 6,12.53 (2.62)
same,"symptom score, Fitzmaurice mixed effects model, B − A (placebo − camostat)",day 6,6.9 (2.81)
same,"symptom severity score, ANCOVA linear mixed model, A: Camostat arm",day 6,−18.43 (2.15)
same,"symptom severity score, ANCOVA linear mixed model, B − A (placebo − camostat)",day 6,5.89 (3.02)
same,"symptom severity score, Negative binomial model, A: Camostat arm",day 6,13.4 (2.45)
same,"symptom severity score, Negative binomial model, B − A",day 6,1.38 (0.29)
same,COVID-19 symptom severity score raw Mean,day 7,12.6
same,"symptom score, Fitzmaurice mixed effects model, A: Camostat arm",day 7,11.37 (2.67)
same,"symptom score, Fitzmaurice mixed effects model, B − A (placebo − camostat)",day 7,4.68 (2.84)
same,"symptom severity score, ANCOVA linear mixed model, A: Camostat arm",day 7,−19.64 (2.2)
same,"symptom severity score, ANCOVA linear mixed model, B − A (placebo − camostat)",day 7,3.71 (3.05)
same,"symptom severity score, Negative binomial model, A: Camostat arm",day 7,12.09 (2.79)
same,"symptom severity score, Negative binomial model, B − A",day 7,1.23 (0.3)
same,COVID-19 symptom severity score raw Mean,day 8,11.4
same,"symptom score, Fitzmaurice mixed effects model, A: Camostat arm",day 8,9.57 (2.67)
same,"symptom score, Fitzmaurice mixed effects model, B − A (placebo − camostat)",day 8,5.4 (2.85)
same,"symptom severity score, ANCOVA linear mixed model, A: Camostat arm",day 8,−21.42 (2.2)
same,"symptom severity score, ANCOVA linear mixed model, B − A (placebo − camostat)",day 8,4.43 (3.06)
same,"symptom severity score, Negative binomial model, A: Camostat arm",day 8,10.6 (2.64)
same,"symptom severity score, Negative binomial model, B − A",day 8,1.28 (0.34)
same,COVID-19 symptom severity score raw Mean,day 9,10.7
same,"symptom score, Fitzmaurice mixed effects model, A: Camostat arm",day 9,8.86 (2.67)
same,"symptom score, Fitzmaurice mixed effects model, B − A (placebo − camostat)",day 9,5.13 (2.85)
same,"symptom severity score, ANCOVA linear mixed model, A: Camostat arm",day 9,−22.13 (2.2)
same,"symptom severity score, ANCOVA linear mixed model, B − A (placebo − camostat)",day 9,4.16 (3.06)
same,"symptom severity score, Negative binomial model, A: Camostat arm",day 9,9.94 (2.43)
same,"symptom severity score, Negative binomial model, B − A",day 9,1.25 (0.33)
same,COVID-19 symptom severity score raw Mean,day 10,10
same,"symptom score, Fitzmaurice mixed effects model, A: Camostat arm",day 10,8.24 (2.67)
same,"symptom score, Fitzmaurice mixed effects model, B − A (placebo − camostat)",day 10,4.67 (2.85)
same,"symptom severity score, ANCOVA linear mixed model, A: Camostat arm",day 10,−22.75 (2.2)
same,"symptom severity score, ANCOVA linear mixed model, B − A (placebo − camostat)",day 10,3.7 (3.06)
same,"symptom severity score, Negative binomial model, A: Camostat arm",day 10,9.36 (2.56)
same,"symptom severity score, Negative binomial model, B − A",day 10,1.2 (0.36)
same,COVID-19 symptom severity score raw Mean,day 11,9.3
same,"symptom score, Fitzmaurice mixed effects model, A: Camostat arm",day 11,7.25 (2.69)
same,"symptom score, Fitzmaurice mixed effects model, B − A (placebo − camostat)",day 11,4.44 (2.87)
same,"symptom severity score, ANCOVA linear mixed model, A: Camostat arm",day 11,−23.77 (2.22)
same,"symptom severity score, ANCOVA linear mixed model, B − A (placebo − camostat)",day 11,3.5 (3.08)
same,"symptom severity score, Negative binomial model, A: Camostat arm",day 11,8.49 (2.3)
same,"symptom severity score, Negative binomial model, B − A",day 11,1.17 (0.35)
same,COVID-19 symptom severity score raw Mean,day 12,9.6
same,"symptom score, Fitzmaurice mixed effects model, A: Camostat arm",day 12,8.18 (2.69)
same,"symptom score, Fitzmaurice mixed effects model, B − A (placebo − camostat)",day 12,2.39 (2.88)
same,"symptom severity score, ANCOVA linear mixed model, A: Camostat arm",day 12,−22.87 (2.22)
same,"symptom severity score, ANCOVA linear mixed model, B − A (placebo − camostat)",day 12,1.46 (3.09)
same,"symptom severity score, Negative binomial model, A: Camostat arm",day 12,9.06 (2.18)
same,"symptom severity score, Negative binomial model, B − A",day 12,0.94 (0.25)
same,COVID-19 symptom severity score raw Mean,day 13,9.7
same,"symptom score, Fitzmaurice mixed effects model, A: Camostat arm",day 13,7.87 (2.75)
same,"symptom score, Fitzmaurice mixed effects model, B − A (placebo − camostat)",day 13,2.11 (2.95)
same,"symptom severity score, ANCOVA linear mixed model, A: Camostat arm",day 13,−23.17 (2.29)
same,"symptom severity score, ANCOVA linear mixed model, B − A (placebo − camostat)",day 13,1.17 (3.15)
same,"symptom severity score, Negative binomial model, A: Camostat arm",day 13,8.9 (2.27)
same,"symptom severity score, Negative binomial model, B − A",day 13,0.88 (0.26)
same,COVID-19 symptom severity score raw Mean,day 14,8.2
same,"symptom score, Fitzmaurice mixed effects model, A: Camostat arm",day 14,7.8 (2.75)
same,"symptom score, Fitzmaurice mixed effects model, B − A (placebo − camostat)",day 14,2.24 (2.97)
same,"symptom severity score, ANCOVA linear mixed model, A: Camostat arm",day 14,−23.26 (2.29)
same,"symptom severity score, ANCOVA linear mixed model, B − A (placebo − camostat)",day 14,1.32 (3.16)
same,"symptom severity score, Negative binomial model, A: Camostat arm",day 14,8.11 (2.11)
same,"symptom severity score, Negative binomial model, B − A",day 14,1.03 (0.31)
same,symptom severity scores compared to placebo,"days 5 through 10, did not reach statistical significance",lower
